Results from PubChem BioAssay AID1626 (SRMLSC, 2009).

System: M. tuberculosis H37Rv growth inhibition
Assay: M. tuberculosis H37Rv growth inhibitors, H37Rv strain (AID 1626)
Details: for IC90: measured here: IC90 against H37Rv; for CC50: measured here: Vero cell cytotoxicity

Compound	IC50 [µM]	IC90 [µM]	CC50 [µM]
O=C1C=C(Nc2ccccc2O)c2ccccc2C1=O	23.3	26.6	13.3
O=C(C[n+]1cc(-c2ccccc2)n2c1CCC2)N1c2ccccc2Sc2ccccc21	22.5	> 100	
CCOc1ccc(NCc2nnc(SCC(=O)Nc3cc(C)on3)n2-c2ccc(OC)cc2)cc1	35.3	> 100	
O=C(Nc1nnc(-c2cccnc2)o1)c1cccc(Cl)c1	3.27	> 100	33.7
COc1ccc(NC(=O)c2nc[nH]c2C(=O)N[C@@H](C)c2ccccc2)cc1	5.7	22.4	> 40
CCn1ccnc1CN(C)Cc1cn(-c2cc(C)ccc2C)nc1-c1ccccc1	5.88	10.3	
O=C(Nc1cccnc1)c1c(O)c2cccc3c2n(c1=O)CC3	1.87	2.08	
COc1c(C)cc(C(=O)C2CCCN(Cc3cccc(C)n3)C2)cc1C (stereo unspecified)	18.6	> 100	> 40
CCCCCC(=O)Nc1ccc2ccccc2c1	< 0.195	> 100	
CCOc1ccc(NC(=O)CN2CCN(C3c4ccccc4-c4ccccc43)CC2)cc1	22.2	> 100	> 40
CC(C)OC(=O)CSc1nnc(-c2ccc(Cl)cc2Cl)o1	< 0.195	9.2	
O=C(COC(=O)c1ccccc1Br)NCCC1=CCCCC1	17.6	> 100	
O=C1Nc2ccccc2/C1=N\N=C\C1=C(N2CCOCC2)C(=C\c2ccccc2)/CC1	1.29	1.86	> 40
CC1(C)OC(=O)C(=Cc2ccc[nH]2)C(=O)O1	< 0.195	> 100	
Cc1ccc(NC2=C/C(=N\S(=O)(=O)c3cccs3)c3ccccc3C2=O)c(C)c1	3.89	5.64	3.74
COc1cccc(C(=O)/C=C/c2ccc(N3CCCCC3)c([N+](=O)[O-])c2)c1	29.4	> 100	27.2
COc1ccc(NC(=O)NC(C)C2CC3CCC2C3)cc1 (stereo unspecified)	7.4	> 100	> 40
CC1CCCN(C(=O)C2CCC(CNc3c(N4CCCCC4)c(=O)c3=O)CC2)C1 (stereo unspecified)	11.7	> 100	
O=C(/C=C/c1ccco1)c1ccc(NC(=O)C23CC4CC(CC(C4)C2)C3)cc1	< 0.195	> 100	
O/C(=C\c1nc2ccccc2nc1/C=C(\O)c1ccccc1)c1ccccc1		> 100	> 40
Cc1ccc(OC(=O)c2sc3ncn(C)c(=O)c3c2C)cc1	1.49	1.7	

Compound	IC50 [µM]	IC90 [µM]	CC50 [µM]
O=C(Nc1nc2ccccc2[nH]1)C12CC3CC(CC(C3)C1)C2	2.25	13.1	> 40
Fc1ccc(-c2nnc(CSc3nnc(-c4cccs4)o3)o2)cc1		> 100	
CCCCCCCn1c(=O)c(C(=O)Nc2cnccn2)c(O)c2ccccc21	< 0.195	< 0.195	2.37
CC(NC(=O)Nc1ccc(Br)cc1)C(C)(C)C (stereo unspecified)	0.42	> 100	
O=C(CSCC(=O)Nc1ccc2ccccc2c1)NCc1ccccc1	35.4	> 100	
Cc1ccc(C(=O)NCCSC(C)(C)C)cc1[N+](=O)[O-]	2.96	3.32	
O=C1c2cccc3c([N+](=O)[O-])ccc(c23)C(=O)N1Cc1cccnc1	2.02	3.69	6.25
O=C(Nc1nccs1)c1sc2ccccc2c1Cl	15.1	> 100	> 40
O=C(N[C@H](CO)[C@H](O)c1ccc([N+](=O)[O-])cc1)C(Cl)Cl	4.82	7.7	> 40
CN(C)CCCNc1cc(C(C)(C)C)nc2c(-c3ccccc3)cnn12	3.17	4.9	9.79
CCCCCCc1ccc(OCC(=O)OC)cc1OCC(=O)OC	1.82	20.1	
CCOC(=O)CSc1ncnc2c1cnn2-c1ccc(C)cc1	10.1	22.5	
Cc1ccc(NCc2nnc(SCC(=O)OC3CCCCC3)o2)c(C)c1	0.332	1.59	
CCOc1ccc(NC(=O)c2ccc(NC(=O)c3cn4c5c(c(N6CCN(C)CC6)c(F)cc5c3=O)OCC4C)cc2)cc1 (stereo unspecified)	2.83	3.17	> 40
CCOC(=O)c1ccc(NC(=O)c2ccc(OC(C)C)c(OC)c2)cc1	14.1	28.2	
COc1ccc2nc(C)cc(SCC(=O)OC(C)C)c2c1	9.36	13.8	
CCOC(=O)COc1cc(OCC(=O)OCC)c2c(=O)cc(-c3ccccc3)oc2c1	1.37	3.74	
Cc1c2ccncc2c(C)c2c1[nH]c1ccccc12	0.465	0.667	0.793
Cc1ccc(C(=O)/C=C/c2ccc(-c3ccc(C)cc3)o2)cc1			21.9
Oc1ccccc1N=Cc1ccc[nH]1	3.04	6.39	> 40
Cc1ccc(NC(=O)C2CCCCC2C(=O)O)cc1Cl (stereo unspecified)		> 100	

Compound	IC50 [µM]	IC90 [µM]	CC50 [µM]
Cc1ccc(Nc2c(-c3ccccn3)nc3ccc(C)cn23)cc1	1.43	1.63	1.54
O=C1C=CC(O)(c2cc(=O)c3c(O)cc(O)cc3o2)C=C1	3.87	6.68	6.81
O=c1[nH][nH]cc1C=Nc1ccc(Oc2ccccc2)cc1	15.4	> 100	
O=C(c1cc2cc3ccc(Cl)cc3nc2o1)N1CCC2(CC1)OCCO2	3.56	7.22	
c1ccc(-c2nc(N3CCCCCC3)nc(-n3ccnc3)n2)cc1	0.253	1.9	30
COc1cccc(-c2cc(C(=O)Nc3nc4ccccc4s3)c3ccccc3n2)c1	8.12	> 100	> 40
Cc1ccc(-c2nn(-c3ccccc3)cc2C=O)o1			> 40
Nc1c(C(=O)NCc2ccccc2)c2nc3ccccc3nc2n1CCCN1CCOCC1	12.7	17.1	> 40
CCCC(=O)N1CCN(c2ccc(NC(=O)c3ccc([N+](=O)[O-])o3)cc2Cl)CC1	< 0.195	< 0.195	1.8
O=C(C[n+]1cnn(CC(=O)c2ccc(Cl)cc2Cl)c1)c1ccc([N+](=O)[O-])cc1	20.3	36.8	
CC(C)c1ccc(CNC(=O)C(=O)Nc2nccs2)cc1	49.8	> 100	
O=C(NC1=NCCS1)c1ccc(-c2ccc(Cl)cc2)o1	28.4	> 100	
Cc1ccc(C(=O)CC(=O)COc2ccc(Cl)cc2)cc1	6.66	> 100	> 40
O=C(CSc1nc2ccccc2o1)NCC(=O)c1ccccc1	8.36	25.9	
CC(=O)Nc1cccc(OCc2ccc(F)cc2)c1		> 100	> 40
O=C(CSCC(=O)NC1CC1)Nc1ccc2ccccc2c1	5.37	> 100	
COC(=O)COc1ccc2c(=O)c(Oc3ccccc3)c(C)oc2c1	2.13	10	
Clc1cccc2c1Sc1ccccc1CC2N1CCNCC1 (stereo unspecified)	3.12	6.58	11.2
CCCCCCCCn1cnc2c(N)c(C)c(C)cc21	15.9	21.4	
CNc1nc(SC)nc2ccsc12	5.66	15.2	
